Results from PMC3448010 (Biochemistry, 2012).
pKd: −log10 of the molar value. Values joined by “and” are separate entries in the source; they are usually repeats but may differ in a detail not shown here. Equal entries are not always repeated. Where two headings read alike, the source gives them in different places.

Assays:
SULT2A1 [1] = biological target: T1, SULT2A1 (Homo sapiens, UniProt Q06520); assay: Equilibrium ligand binding monitored by intrinsic enzyme fluorescence
T1 sequence (Q06520 1-285): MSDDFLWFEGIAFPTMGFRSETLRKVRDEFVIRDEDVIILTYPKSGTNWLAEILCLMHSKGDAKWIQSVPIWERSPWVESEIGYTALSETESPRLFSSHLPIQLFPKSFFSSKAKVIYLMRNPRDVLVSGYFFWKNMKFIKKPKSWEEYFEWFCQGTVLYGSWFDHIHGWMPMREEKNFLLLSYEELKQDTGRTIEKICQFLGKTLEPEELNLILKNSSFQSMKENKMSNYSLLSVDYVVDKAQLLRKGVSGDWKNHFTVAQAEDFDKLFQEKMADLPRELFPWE

SULT2A1 [2] = biological target: T1, SULT2A1; details: read-out: typical Km; cited from earlier work
SULT2A1 [3] = biological target: T1, SULT2A1; assay: Presteady state
SULT2A1 [4] = biological target: T1, SULT2A1; assay: Initial-rate kinetics of raloxifene and DHEA sulfation; details: for Km: 25 °C, pH 7.4, sequential Bi-Bi fit; for Kia: co-substrate extrapolated to zero
[5] = cited from earlier work

Nc1ncnc2c1ncn2[C@@H]1O[C@H](COP(=O)(O)O)[C@@H](OP(=O)(O)O)[C@H]1O [PAP, 3′, 5′-diphosphoadenosine]
pKd (SULT2A1 [1]; Kd, enzyme species DHEA·E·): 6.68 | pKd (SULT2A1 [1]; Kd, enzyme species Ral·E·): 5.22

Nc1ncnc2c1ncn2[C@@H]1O[C@H](COP(=O)(O)OS(=O)(=O)O)[C@@H](OP(=O)(O)O)[C@H]1O [PAPS, 3′-phosphoadenosine 5′-phosphosulfate]
Km (SULT2A1 [2]): ~0.3 µM | koff (SULT2A1 [3]; enzyme species DHEA·E·): 2.1 s^−1 and 1.9 (0.2) s^−1 | koff (SULT2A1 [3]; enzyme species E· (unliganded)): 2.1 s^−1 and 2.3 (0.3) s^−1 | koff (SULT2A1 [3]; enzyme species RAL·E·, raloxifene 50 μM): 50 (2) s^−1 | faster escape from PAPS·E·raloxifene than from PAPS·E and PAPS·E·DHEA (SULT2A1 [3]; off-rate constants): 24 fold | weakening in PAPS affinity with raloxifene bound (SULT2A1 [3]; raloxifene prevents gate closure): 21 fold | pKd (SULT2A1 [3]; read-out: Kd (koff/kon), enzyme species DHEA·E·): 6.62 | pKd (SULT2A1 [3]; read-out: Kd (koff/kon), enzyme species E· (unliganded)): 6.57 | pKd (SULT2A1 [3]; read-out: Kd (koff/kon), enzyme species RAL·E·, raloxifene 50 μM): 5.22 | kcat (SULT2A1 [4]; DHEA/PAPS substrate pair): 0.7 (0.03) sec^−1 | Km (SULT2A1 [4]; DHEA/PAPS substrate pair): 0.39 µM | Kia (SULT2A1 [4]; DHEA/PAPS substrate pair): 0.47 (0.06) μM | kcat (SULT2A1 [4]; RAL/PAPS substrate pair): 0.10 (0.01) sec^−1 | Km (SULT2A1 [4]; RAL/PAPS substrate pair): 5.9 µM | Kia (SULT2A1 [4]; RAL/PAPS substrate pair): 0.24 (0.04) μM | pKd (SULT2A1 [1]; enzyme species E· (unliganded)): 6.55

C[C@]12CC[C@H](O)CC1=CC[C@@H]1[C@@H]2CC[C@]2(C)C(=O)CC[C@@H]12 [DHEA, 5-dehydroepiandrosterone]
sulfated in-vivo [5]: > 99% | pKd (SULT2A1 [3]): 5.96 | koff (SULT2A1 [3]; enzyme species E· (unliganded)): 2.1 s⁻¹ | koff (SULT2A1 [3]; enzyme species PAPS·E·): 3 s⁻¹ | kcat/Km relative to raloxifene (SULT2A1 [4]; DHEA vs raloxifene): 135 fold | Kia (SULT2A1 [4]; DHEA/PAPS substrate pair): 1.8 (0.1) μM | positive synergy in the interaction with PAPS (SULT2A1 [4]; from kinetic constants): 1.4 fold | pKd (SULT2A1 [1]; Kd, enzyme species E· (unliganded)): 6.00 | pKd (SULT2A1 [1]; Kd, enzyme species PAP·E·, global fit of titrations at five PAP concentrations): 5.96 | synergy between PAP and acceptor (SULT2A1 [1]; global fit, five PAP concentrations): 1.1 (± 0.2)
